Results taken from the supplement of paper PMC10307832.

Legend:
Test in all cases: relative viability (nuclei count vs DMSO), 5 days (fraction); higher = more cells survive
[1] = compound: COC1=C(C=C(C=C1)C2=CC3=NC=CN3C(=N2)NC4=C(C=CC=N4)C(=O)N)OC [BAY61-3606] + CC(C)C[C@H](NC(=O)[C@H](Cc1ccccc1)NC(=O)c1cnccn1)B(O)O [Bortezomib] (partner 0.002 µM)
Summary of the method: (§1)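 After 5 days of treatment, lung cancer cells in 1536-well plates were fixed and stained in a single step (final 0.05% Triton X-100, 1% formaldehyde, 1 ug/ml Hoechst) and their nuclei counted on 4× images. Treatment had been applied by pin tool the day after seeding as one drug alone or as a fixed anchor-drug dose with five library-drug doses (not always all listed) in √10 steps. Relative viability is the nuclei count of treated wells divided by that of vehicle wells, and values are medians of duplicate plates.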

[2] = compound: COC1=C(C=C(C=C1)C2=CC3=NC=CN3C(=N2)NC4=C(C=CC=N4)C(=O)N)OC [BAY61-3606] + C[C@@H](Oc1cc(-c2cnn(C3CCNCC3)c2)cnc1N)c1c(Cl)ccc(F)c1Cl [Crizotinib] (partner 1 µM)
Summary of the method: as §1

[3] = compound: COc1cccc2c1C(=O)c1c(O)c3c(c(O)c1C2=O)C[C@@](O)(C(=O)CO)C[C@@H]3O[C@H]1C[C@H](N)[C@H](O)[C@H](C)O1 [Doxorubicin] + CC(C)C[C@H](NC(=O)[C@H](Cc1ccccc1)NC(=O)c1cnccn1)B(O)O [Bortezomib] (partner 0.002 µM)
Summary of the method: as §1

[4] = compound: COc1cccc2c1C(=O)c1c(O)c3c(c(O)c1C2=O)C[C@@](O)(C(=O)CO)C[C@@H]3O[C@H]1C[C@H](N)[C@H](O)[C@H](C)O1 [Doxorubicin] + NC(=O)Nc1cc(-c2cccc(F)c2)sc1C(=O)N[C@H]1CCCNC1 [AZD7762] (partner 0.2 µM)
Summary of the method: as §1

Cell Line | relative viability ([1]; first compound 0.02 µM) | relative viability ([1]; first compound 0.06325 µM) | relative viability ([1]; first compound 0.2 µM) | relative viability ([1]; first compound 0.6325 µM) | relative viability ([1]; first compound 2 µM) | relative viability ([2]; first compound 0.02 µM) | relative viability ([2]; first compound 0.06325 µM) | relative viability ([2]; first compound 0.2 µM) | relative viability ([2]; first compound 0.6325 µM) | relative viability ([2]; first compound 2 µM) | relative viability ([3]; first compound 0.001 µM) | relative viability ([3]; first compound 0.003162 µM) | relative viability ([3]; first compound 0.01 µM) | relative viability ([3]; first compound 0.03162 µM) | relative viability ([3]; first compound 0.1 µM) | relative viability ([4]; first compound 0.001 µM) | relative viability ([4]; first compound 0.003162 µM) | relative viability ([4]; first compound 0.01 µM) | relative viability ([4]; first compound 0.03162 µM) | relative viability ([4]; first compound 0.1 µM)
LCLC-103H | 1.28 | 1.01 | 1.03 | 1.07 | 1.05 | 1.07 | 0.997 | 1.02 | 1.08 | 1.02 | 1.07 | 1.12 | 1.08 | 1.14 | 1.12 | 0.781 | 0.815 | 0.75 | 0.767 | 0.826
NCI-H1437 | 0.544 | 0.502 | 0.433 | 0.536 | 0.509 | 0.973 | 0.961 | 0.854 | 0.984 | 0.797 | 0.491 | 0.605 | 0.472 | 0.205 | 0.185 | 1.11 | 0.994 | 1.04 | 1.09 | 0.877
H3255 | 0.932 | 0.611 | 0.724 | 0.822 | 0.725 | 0.922 | 0.854 | 0.902 | 1.05 | 0.752 | 0.675 | 0.889 | 0.856 | 0.589 | 0.306 | 0.859 | 0.818 | 0.821 | 0.964 | 0.764
NCI-H1755 | 0.953 | 0.961 | 0.957 | 1.07 | 0.923 | 0.787 | 0.786 | 0.839 | 0.982 | 0.721 | 0.99 | 0.947 | 0.985 | 0.981 | 0.969 | 0.523 | 0.489 | 0.393 | 0.485 | 0.491
LU99A | 1.14 | 1.21 | 1.18 | 1.12 | 0.709 | 0.562 | 0.468 | 0.555 | 0.484 | 0.305 | 1.1 | 1.23 | 1.14 | 0.764 | 0.5 | 0.353 | 0.394 | 0.429 | 0.317 | 0.324
ChaGo-K-1 | 1.22 | 0.933 | 1.03 | 0.917 | 1.1 | 1.09 | 0.832 | 1.06 | 1.14 | 1.05 | 1.16 | 0.832 | 0.948 | 0.47 | 0.319 | 0.857 | 0.922 | 0.873 | 0.846 | 0.811
NCI-H2347 | 1.09 | 0.815 | 0.971 | 0.869 | 1.01 | 0.749 | 0.589 | 0.781 | 0.848 | 0.756 | 1.05 | 0.697 | 0.955 | 0.908 | 0.692 | 0.618 | 0.895 | 0.668 | 0.686 | 0.58
NCI-H650 | 0.917 | 0.766 | 0.618 | 0.681 | 0.72 | 0.725 | 0.331 | 0.701 | 0.669 | 0.47 | 0.862 | 0.688 | 0.914 | 0.697 | 0.511 | 0.949 | 0.921 | 0.948 | 0.89 | 0.718
NCI-H1703 | 0.486 | 0.321 | 0.291 | 0.368 | 0.234 | 0.76 | 0.449 | 0.661 | 0.353 | 0.343 | 0.234 | 0.324 | 0.25 | 0.165 | 0.0968 | 0.131 | 0.146 | 0.146 | 0.119 | 0.114
NCI-H1666 | 0.99 |  | 0.836 | 0.806 | 0.683 | 1.13 |  | 0.782 | 0.968 | 0.969 | 0.833 | 0.559 | 0.476 | 0.302 | 0.272 | 0.909 | 0.762 | 0.882 | 0.795 | 0.596
NCI-H1792 | 0.967 | 0.987 | 0.879 | 0.943 | 0.976 | 0.944 | 1.03 | 0.777 | 0.947 | 1.08 | 0.929 | 1.1 | 1 | 0.898 | 0.924 | 0.653 | 0.824 | 0.721 | 0.522 | 0.45
PC-3 [JPC-3] | 0.833 | 0.841 | 0.826 | 0.834 | 0.793 | 1.03 | 0.961 | 0.979 | 0.96 | 0.944 | 0.81 | 0.926 | 0.863 | 0.79 | 0.8 | 0.901 | 0.927 | 0.96 | 0.762 | 0.585
HARA | 1.08 | 1.14 | 1.19 | 1.09 | 1.1 | 1.08 | 1.08 | 1.06 | 1.07 | 0.892 | 1.1 | 0.993 | 1.11 | 1.08 | 1 | 1.09 | 0.25 | 0.38 | 0.267 | 0.377
NCI-H727 | 0.844 | 0.822 | 0.872 | 0.856 | 0.829 | 0.855 | 0.706 | 0.992 | 0.925 | 0.738 | 0.794 | 0.985 | 0.656 | 0.658 | 0.613 | 0.675 | 0.575 |  | 0.497 | 0.573
NCI-H2405 | 0.992 | 0.973 | 0.961 | 0.964 | 0.942 | 0.856 | 0.787 | 0.764 | 0.849 | 0.661 | 1 | 1.01 | 0.973 | 0.994 | 0.994 | 0.785 | 0.802 | 0.801 | 0.682 | 0.381
LOU-NH91 | 0.52 | 0.485 | 0.462 | 0.467 | 0.454 | 0.72 | 0.722 | 0.77 | 0.777 | 0.662 | 0.493 | 0.477 | 0.479 | 0.487 | 0.407 |  | 0.79 | 0.77 | 0.722 | 0.429
